Where a name gives a salt, the structure may show the parent alone. Read-outs that look alike come from different tables or passages of the source.

Series [1] can be described thus: in vitro. Particulars: human, Relative Viability (%).
In series [2] the test system is A/PuertoRico/8/1934 (H1N1) virus. Put plainly: microbe, parasite or virus in culture. The series is classed as cell-based, influenza A virus.
Where [3] appears, read: Influenza A virus, H1N1, U-937, 48 h; read-out: NA Inhibition (%).
Where [4] appears, read: Influenza A virus, H1N1, U-937, 48 h, read-out: NA Inhibition (%).

Take `CCN1CCC[C@H]1CNC(=O)c1cc(S(N)(=O)=O)ccc1OC` [Levosulpiride]: the viability at 20 µM in series [1] was 104%. Besides, the inhibition at 20 µM in series [2] (setting [3]) was 2.8%.
For the molecule `COCCc1ccc(OCC(O)CNC(C)C)cc1` (stereo not drawn) [Metoprolol Tartrate], in series [1], the viability at 20 µM was found to be 106%. For the same molecule, in series [2] (setting [4]), the inhibition at 20 µM is -24.2%.
The corresponding values for `CCC1(c2cnc[nH]2)Cc2ccccc2C1` [Atipamezole] are 118% and 38.2%.
As for `C[N+](C)(C)CCCCCC[N+](C)(C)C` [Hexamethonium Bromide], the viability at 20 µM in series [1] was determined as 104%. Further, the inhibition at 20 µM in series [2] (setting [3]) is -10.2%.
The corresponding values for `CN1CCC(=C2c3ccccc3CCn3c(C=O)cnc32)CC1` [Alcaftadine] are 188% and -0.9%.
`CC(C)NCC(O)COc1ccc(CCOCC2CC2)cc1` (stereo not drawn) [Betaxolol]: the viability at 20 µM in series [1] was found to be 115%. Also, the inhibition at 20 µM in series [2] (setting [4]) came to 6.7%.
Regarding `CCOc1cc(N)c(Cl)cc1C(=O)NCC1CN(Cc2ccc(F)cc2)CCO1` (stereo not drawn) [Mosapride Citrate], the viability at 20 µM in series [1] turned out to be 112%. Moreover, in series [2] (setting [3]), the inhibition at 20 µM is 32.4%.
Take `Cc1c(-c2ccccc2)oc2c(C(=O)OCCN3CCCCC3)cccc2c1=O` [Flavoxate HCl]: the viability at 20 µM in series [1] was found to be 118%. Besides, the inhibition at 20 µM in series [2] (setting [3]) stood at 8.2%.
On to `c1ccc(CC2=NCCN2)cc1` [Tolazoline HCl], for which, in series [1], the viability at 20 µM worked out at 86%. In addition, in series [2] (setting [3]), the inhibition at 20 µM worked out at 14.5%.
In the same order, the values of `CCCC(CCC)C(=O)O` [Valproic acid sodium salt] are 113% and -18.5%.
Take `CNS(=O)(=O)CCc1ccc2[nH]cc(C3CCN(C)CC3)c2c1` [Naratriptan]: the viability at 20 µM in series [1] worked out at 102%. The inhibition at 20 µM in series [2] (setting [3]) stood at 5.8%.
With `COc1ccccc1N1CCN(CC(O)COc2cccc3ccccc23)CC1` (stereo not drawn) [Naftopidil], in series [1], the viability at 20 µM was found to be 102%. In series [2] (setting [4]), the inhibition at 20 µM was determined as 13.4%.
Regarding `Cc1cc(C(C)(C)C)c(O)c(C)c1CC1=NCCN1` [Oxymetazoline hydrochloride], the viability at 20 µM in series [1] stood at 113%. Moreover, the inhibition at 20 µM in series [2] (setting [4]) is -21%.
On to `C=CC[N+]1([C@H]2C[C@H]3[C@@H]4CC[C@H]5C[C@H](O)[C@@H](N6CCOCC6)C[C@]5(C)[C@H]4CC[C@]3(C)[C@H]2OC(C)=O)CCCC1` [Rocuronium Bromide], for which the viability at 20 µM in series [1] was determined as 106%. The inhibition at 20 µM in series [2] (setting [3]) is 16.7%.
The corresponding values for `COc1cc2nc(N3CCN(C(=O)c4ccco4)CC3)nc(N)c2cc1OC` [Prazosin HCl] are 76.9% and -45.6%.
Turning to `C[C@](N)(Cc1ccc(O)c(O)c1)C(=O)O` [Methyldopa], in series [1], the viability at 20 µM came out at 104%. Further, in series [2] (setting [4]), the inhibition at 20 µM is -13.4%.
The corresponding values for `COc1cc2nc(N(C)CCCNC(=O)C3CCCO3)nc(N)c2cc1OC` (stereo not drawn) [Alfuzosin HCl] are 110% and -12.3%.
Turning to `N=C(N)NC(=O)Cc1c(Cl)cccc1Cl` [Guanfacine Hydrochloride], in series [1], the viability at 20 µM was 102%. In addition, the inhibition at 20 µM in series [2] (setting [3]) is 11%.
On to `N#Cc1ccccc1-c1cc(-c2ccccn2)cn(-c2ccccc2)c1=O` [Perampanel], for which the viability at 20 µM in series [1] stood at 98.8%. In series [2] (setting [3]), the inhibition at 20 µM is -30.9%.
For the molecule `O=C(O[C@H]1C[N+]2(CCCOc3ccccc3)CCC1CC2)C(O)(c1cccs1)c1cccs1` [Aclidinium Bromide], the viability at 20 µM in series [1] stood at 194%. Besides, the inhibition at 20 µM in series [2] (setting [3]) was determined as 13.8%.
On to `O=C1c2c(O)cc(O)cc2O[C@H](c2cc(O)c(O)c(O)c2)[C@H]1O` [Dihydromyricetin], for which, in series [1], the viability at 20 µM turned out to be 95.3%. In series [2] (setting [3]), the inhibition at 20 µM came out at 9.3%.
As for `Clc1ccc2nsnc2c1NC1=NCCN1` [Tizanidine HCl], the viability at 20 µM in series [1] is 78.9%. For the same molecule, the inhibition at 20 µM in series [2] (setting [4]) is -28.3%.
With `Cc1cccc(Cc2c[nH]cn2)c1C` [Detomidine HCl], the viability at 20 µM in series [1] came out at 109%. Besides, the inhibition at 20 µM in series [2] (setting [4]) is 31.2%.
As to `N#Cc1ccc2[nH]cc(CCCCN3CCN(c4ccc5oc(C(N)=O)cc5c4)CC3)c2c1` [Vilazodone HCl], the viability at 20 µM in series [1] stood at 98.9%. Also, the inhibition at 20 µM in series [2] (setting [3]) was -49.6%.
Consider `Nc1nc(CC(=O)Nc2ccc(CCNC[C@H](O)c3ccccc3)cc2)cs1` [Mirabegron], for which the viability at 20 µM in series [1] was 102%. For the same molecule, the inhibition at 20 µM in series [2] (setting [4]) is -9.6%.
Consider `O=C1c2cccc3c2[C@H](CCC3)CN1[C@@H]1CN2CCC1CC2` [Palonosetron HCl], for which the viability at 20 µM in series [1] stood at 102%. Also, in series [2] (setting [3]), the inhibition at 20 µM was -5.5%.
Consider `COc1ccc(C[C@@H]2c3cc(OC)c(OC)cc3CC[N@+]2(C)CCC(=O)OCCCCCOC(=O)CC[N@@+]2(C)CCc3cc(OC)c(OC)cc3[C@H]2Cc2ccc(OC)c(OC)c2)cc1OC` [Cisatracurium Besylate], for which the viability at 20 µM in series [1] was 106%. Also, the inhibition at 20 µM in series [2] (setting [4]) was 27.9%.
In the case of `Cc1cccc(C)c1NC(=O)CN1CCCC1=O` [Nefiracetam], the viability at 20 µM in series [1] amounted to 105%. Also, the inhibition at 20 µM in series [2] (setting [3]) was found to be 6%.
As to `CN(C)CCN(Cc1ccccc1)c1ccccn1` [Tripelennamine HCl], the viability at 20 µM in series [1] was 105%. The inhibition at 20 µM in series [2] (setting [3]) was -0.2%.
Turning to `CCCN[C@H]1CCc2nc(N)sc2C1` [Pramipexole dihydrochloride monohydrate], the viability at 20 µM in series [1] worked out at 100%. Besides, the “NA Inhibition (%)” value in series [2] (20 µM) turned out to be 2.6.
Consider `COc1ccc(C(CN(C)C)C2(O)CCCCC2)cc1` (stereo not drawn) [Venlafaxine], for which the viability at 20 µM in series [1] was 93.2%. In addition, in series [2] (setting [3]), the inhibition at 20 µM was -1.3%.
In the same order, the values of `CN(C)CC(c1ccc(O)cc1)C1(O)CCCCC1` (stereo not drawn) [Desvenlafaxine Succinate] are 98.8% and 11%.
Consider `C[N+]1(C)CCC(=C(c2ccccc2)c2ccccc2)CC1` [Diphemanil Methylsulfate], for which the viability at 20 µM in series [1] is 98.2%. Also, the inhibition at 20 µM in series [2] (setting [3]) is -0.6%.
For the molecule `NCCc1c[nH]cn1` [Histamine Phosphate], in series [1], the viability at 20 µM came to 98.9%. Moreover, in series [2] (20 µM), the “NA Inhibition (%)” value is on record as -2.9.
Take `Cc1cccn2c(=O)c(-c3nnn[nH]3)cnc12` [Pemirolast potassium]: the viability at 20 µM in series [1] is 108%. Also, in series [2] (setting [3]), the inhibition at 20 µM was -23.7%.
The corresponding values for `C[C@@H]1C(=O)O[C@H]2C[C@@]34[C@H]5C[C@@H](C(C)(C)C)[C@]36[C@@H](OC(=O)[C@@H]6O)O[C@@]4(C(=O)O5)[C@]21O` [Ginkgolide A] are 109% and 23.3%.
In the same order, the values of `O=C(O[C@H]1CN2CCC1CC2)N1CCc2ccccc2[C@@H]1c1ccccc1` [Solifenacin succinate] are 102% and 22.6%.
Consider `CNCC(O)c1ccc(O)cc1` (stereo not drawn) [Synephrine], for which the viability at 20 µM in series [1] was 90.5%. For the same molecule, the inhibition at 20 µM in series [2] (setting [4]) was 12.3%.
As to `CN1CCN2c3ccccc3Cc3ccccc3C2C1` (stereo not drawn) [Mianserin HCl], the viability at 20 µM in series [1] is 91.9%. Moreover, the inhibition at 20 µM in series [2] (setting [3]) worked out at 26.3%.
In the same order, the values of `CN1[C@@H]2CC[C@H]1C[C@@H](OC(=O)c1c[nH]c3ccccc13)C2` [Tropisetron] are 80.9% and 55.4%.
Turning to `CN(C)C(=O)Oc1ccc[n+](C)c1` [Pyridostigmine Bromide], in series [1], the viability at 20 µM was found to be 88.2%. In series [2] (setting [3]), the inhibition at 20 µM is -34.1%.
Take `CCN(CC)CC#CCOC(=O)C(O)(c1ccccc1)C1CCCCC1` (stereo not drawn) [Oxybutynin]: the viability at 20 µM in series [1] came out at 104%. For the same molecule, in series [2] (setting [4]), the inhibition at 20 µM was -3.6%.
Consider `O=C1CC[C@@]2(O)[C@H]3Cc4ccc(O)c5c4[C@@]2(CCN3CC2CC2)[C@H]1O5` [Naltrexone HCl], for which the viability at 20 µM in series [1] was 107%. Further, the inhibition at 20 µM in series [2] (setting [4]) is 10.1%.
As to `NC12CC3CC(CC(C3)C1)C2` [Amantadine HCl], in series [1], the viability at 20 µM came out at 110%. Also, the inhibition at 20 µM in series [2] (setting [3]) turned out to be 69.2%.
In the same order, the values of `CC(=O)OCC[N+](C)(C)C` [Acetylcholine Chloride] are 104% and -5.4%.
The corresponding values for `Cc1nc2n(c(=O)c1CCN1CCC(c3noc4cc(F)ccc34)CC1)CCCC2O` (stereo not drawn) [Paliperidone] are 110% and 9.3%.
For `CN(C)CCC(c1ccc(Cl)cc1)c1ccccn1` (stereo not drawn) [Chlorpheniramine Maleate], the viability at 20 µM in series [1] came to 102%. Moreover, in series [2] (setting [3]), the inhibition at 20 µM turned out to be 1%.
The corresponding values for `COc1ccc2cccc(CCNC(C)=O)c2c1` [Agomelatine] are 89.1% and 18.4%.
As to `CC(C)COc1ccc(CNC(=O)N(Cc2ccc(F)cc2)C2CCN(C)CC2)cc1` [Pimavanserin], the viability at 20 µM in series [1] came out at 113%. Moreover, the inhibition at 20 µM in series [2] (setting [3]) worked out at 18.1%.
In the same order, the values of `CC(C)C(=O)Oc1ccc(CO)cc1[C@H](CCN(C(C)C)C(C)C)c1ccccc1` [Fesoterodine Fumarate] are 114% and -27.7%.
As to `CC(CCc1ccccc1)NCC(O)c1ccc(O)c(C(N)=O)c1` (stereo not drawn) [Labetalol HCl], the viability at 20 µM in series [1] stood at 101%. Besides, in series [2] (setting [4]), the inhibition at 20 µM is -17.2%.
`OC[C@@H](O)CN1CCN(c2ccccc2)CC1` [Levodropropizine]: the viability at 20 µM in series [1] was determined as 104%. Further, in series [2] (setting [3]), the inhibition at 20 µM worked out at 35.7%.
For `CCN1CCCC1CNC(=O)c1cc(S(=O)(=O)CC)c(N)cc1OC` (stereo not drawn) [Amisulpride], the viability at 20 µM in series [1] was determined as 89.7%. Further, the inhibition at 20 µM in series [2] (setting [3]) came to 6.2%.
On to `CCC(COC(=O)c1cc(OC)c(OC)c(OC)c1)(c1ccccc1)N(C)C` (stereo not drawn) [Trimebutine], for which the viability at 20 µM in series [1] stood at 108%. Moreover, the inhibition at 20 µM in series [2] (setting [4]) amounted to 43.7%.
As to `CNC(=C[N+](=O)[O-])NCCSCc1ccc(CN(C)C)o1` [Ranitidine], the viability at 20 µM in series [1] stood at 109%. For the same molecule, the inhibition at 20 µM in series [2] (setting [3]) is -11.1%.
For `CN(C)CCCN1c2ccccc2Sc2ccc(Cl)cc21` [Chlorpromazine HCl], in series [1], the viability at 20 µM amounted to 115%. Also, in series [2] (setting [3]), the inhibition at 20 µM amounted to 53.3%.
With `OCCOCCN1CCN(C2=Nc3ccccc3Sc3ccccc32)CC1` [Quetiapine Fumarate], the viability at 20 µM in series [1] was found to be 104%. Also, the inhibition at 20 µM in series [2] (setting [4]) is -29.1%.

Broadly, the viability is a read-out of living cells in per cent, often relative to untreated cells. As a reminder, the inhibition is the relative decrease from the control value, in per cent.

The values are drawn from article PMC12069340 (Frontiers in Cellular and Infection Microbiology, 2025).
